According to patent EP2269591B1, “IMPROVED PHARMACEUTICAL FORMULATIONS” (AbbVie Inc., priority 2000, dated 2001):
Where two headings read alike, the source gives them in different places.

Assay: oral bioavailability in dogs
Type: in vivo
Settings: unformulated solid in a capsule dosage form, 5 mg/kg oral dose in dogs
Description: Dogs (beagle dogs, mixed sexes, weighing 7-14 kg) were fasted overnight prior to dosing, but were permitted water ad libitum. Each dog received a 100 µg/kg subcutaneous dose of histamine approximately 30 minutes prior to dosing. Each dog received a single dosage form corresponding to a 5 mg/kg dose of the drug. The dose was followed by approximately 10 milliliters of water. Blood samples were obtained from each animal prior to dosing and 0.25, 0.5, 1.0, 1.5, 2, 3, 4, 6, 8, 10, and 12 hours after drug administration. The plasma was separated from the red cells by centrifugation and frozen (-30 °C) until analysis. Concentrations of parent drug were determined by reverse phase HPLC with low wavelength UV detection following liquid-liquid extraction of the plasma samples. The parent drug area under the curve was calculated by the trapezoidal method over the time course of the study. The absolute bioavailability of each test composition was calculated by comparing the area under the curve after oral dosing to that obtained from a single intravenous dose. Each capsule or capsule composition was evaluated in a group containing at least six dogs; the values reported are averages for each group of dogs.

Row | Compound | bioavailability (dog, in vivo, read-out: bioavailability) [%] | bioavailability
1 | CC(C)c1nc(CN(C)C(=O)NC(C(=O)NC(Cc2ccccc2)CC(O)C(Cc2ccccc2)NC(=O)OCc2cncs2)C(C)C)cs1 (centres unmarked) [bis-tosylate of a compound of formula I] | < 2 | 
2 | CC(C)c1nc(CN(C)C(=O)N[C@H](C(=O)N[C@@H](Cc2ccccc2)C[C@H](O)[C@H](Cc2ccccc2)NC(=O)OCc2cncs2)C(C)C)cs1 [compound of formula I] |  | less than 2%
